Experimental data reported in publication PMC8402609, “Guiding the Immune Response to a Conserved Epitope in MSP2, an Intrinsically Disordered Malaria Vaccine Candidate” (Vaccines, 2021).
Read-outs that look alike come from different tables or passages of the source. Where a SMILES comes first, the peptide text is derived from it. Bridges are numbered along the chain shown (N, C = ends).

Legend:
4D11 IgG [1] = assay: SPR competition binding assay, mAb 4D11; design: species or system mouse; conditions: read-out: Kd against 4D11 IgG
Experimental: (§1) Affinities for peptide epitopes and dimer peptides to 4D11 and 9H4 IgG were measured by surface plasmon resonance (SPR) (Biacore T200, GE Healthcare, Parramatta, Australia) using a competition assay method developed previously. First, 3D7 MSP2 was immobilised on a CM5 chip. To determine binding, eight three-fold dilutions of peptide, from 10 µM stock were added with 50 nM 4D11/9H4 IgG to compete with the immobilised antigen. A standard curve was established by flowing eight two-fold dilutions of 4D11 or 9H4 IgG from a 100 nM stock solution.
Following the MD simulations, each peptide was synthesised by standard Fmoc synthesis. Orthogonal protection of cysteines was used to ensure that the desired disulfide bond was formed, leaving a single free cysteine for conjugation to an appropriate carrier for immunisation. […] Consequently, disulfide bond formation and cyclisation coupling were performed in solution. To determine if the additions incorporated into the dimer sequence hindered binding to 4D11, SPR was used to measure their binding affinity to the mAb (Table 2). […] For immunisations, the commonly used carrier protein, keyhole limpet hemocyanin (KLH) was chosen. As conjugation to KLH required a free thiol, an additional cysteine residue was included in all of the peptides (Figure 2).

[2] = test system: biotinylated 13-residue peptides (A-I) spanning the C-terminal region of MSP2; assay: Fine specificity of antisera by peptide array ELISA (peptides A-I); assay type: in vivo, mouse; conditions: individual sera of mice immunised with peptide-KLH conjugate or MSP2 mix, diluted 1:1000; indirect ELISA; peptides C-D span 9H4 epitope, E-G span 4D11 epitope
Experimental: Peptide was conjugated to maleimide-activated KLH (Sigma-Aldrich) following the manufacturer’s protocol. Briefly, 1 mg of each peptide was mixed with 1 mg KLH in the provided buffer for a 200-fold molar excess of peptide to carrier protein. The reaction mixture was degassed under nitrogen and mixed at room temperature (RT) for 2 h. Any unreacted peptide was removed by dialysis against PBS using a 10 kDa cut-off membrane. The extent of conjugation was determined using Ellman’s reagent. Peptide-KLH conjugate stock solution was stored at 4 °C until further use. Prior to immunisation, peptide-KLH conjugates were diluted to 1 mg/mL in PBS and formulated with Montanide ISA720 at an antigen:adjuvant ratio of 3:7 and a final concentration of 0.3 mg/mL. The 3D7 + FC27 MSP2 mix was formulated using 0.15 mg/mL of each allelic form. Female C57BL/6 mice (n = 6 per group) were inoculated subcutaneously with 100 µL containing 30 µg of antigen at weeks 0, 4 and 8, then euthanised at week 10. Sera were collected and stored at −80 °C.
(§2) To determine peptide-KLH binding to 4D11 and 9H4, Maxisorp 96-well microtitre plates (Nunc, Rochester, NY, USA) were coated overnight at 4 °C with 2 µg/mL peptide-KLH in PBS. The plates were blocked with 1% BSA in PBS for 1 h before adding 100 µL of 4D11 and 9H4 IgG in eleven half log10 serial dilutions starting from stock at 1 µg/mL. After 1 h incubation at 4 °C and washing, antigen-bound antibodies were detected with goat anti-mouse IgG (1:2000 dilution) and freshly prepared 2,2-azinobis(3-ethylbenzthiazolinesulfonic acid (ABTS) substrate (1 mm) in citric acid buffer, pH 4.2, containing […]. The absorbance was read at 405 nm using a microplate reader. For determination of peptide-specific antibody titres, peptide-BSA conjugate was coated on the plate at 2 µg/mL. Individual mouse sera were added at a starting dilution of 1000-fold with six half log10 serial dilutions. Endpoint titres were taken as the x-axis intercept of the dilution curve at an absorbance value of three standard deviations (s.d.) greater than OD405 for naïve mouse serum. The fine specificities of the antisera were determined by ELISA using an array of nine biotinylated 13-residue peptides (A-I), which overlap by 2 or 3 residues and spanned the C-terminal region of MSP2 [11, 13]. Maxisorp 96-well microtitre plates (Nunc) were coated overnight at 4 °C with 1 µg/mL streptavidin in PBS. The plates were blocked with 1% BSA in PBS for 2 h before adding 1:500 biotinylated peptides. Individual sera samples were diluted 1:1000 in blocking solution before addition to the peptide array. Antibody was detected with the same protocol as mentioned above.
To characterise the response against these dimeric peptides further, the specificity of the induced antibodies was determined by indirect ELISA using an array of nine biotinylated peptides that spanned the epitopes recognised by the 4D11 and 9H4 mAbs (peptides A-I) (Table 3). Peptides C and D spanned the 9H4 epitope, whilst peptides E to G spanned the 4D11 epitope. […] However, the response against MSP2 was largely dominated by a single mouse in the group.

3D7 merozoites = assay: Merozoite ELISA with pooled mouse sera, 3D7 merozoites; assay type: in vivo, P. falciparum; conditions: pooled sera of immunised mice, two-fold dilutions from 1:500; merozoites 1 × 10^7/well; OD 450 nm; rank order in words
Experimental: The reactivity of mouse polyclonal antibodies with merozoites was determined by ELISA using merozoites from both the 3D7 and FC27 (D10 clone) strains of P. falciparum. The parasites were cultured in human erythrocytes at a haematocrit of 3% in RPMI media supplemented with […]. Viable merozoites were isolated as described previously. Highly synchronised late-stage schizonts were magnet-purified via a MACS magnet separation column (Miltenyi Biotec, Macquarie Park, Australia) and treated with E64 protease inhibitor (ThermoFisher Scientific, Scoresby, Australia) until mature merozoites were formed. Merozoites were released forcing them through a 1.2 µm filter.
Purified whole merozoites were resuspended in PBS supplemented with a cocktail of protease inhibitors (Roche, Castle Hill, Australia). Isolated merozoites were used to coat Nunc Maxisorp™ plates at 1 × 10^7/well and incubated overnight at 4 °C. The plates were then blocked with 1% casein in PBS at 37 °C for 2 h (or overnight at 4 °C). Pooled sera samples were added to wells at two-fold serial dilution in duplicate with a starting dilution of 1:500 and incubated at RT for 1 h. The plates were further incubated with HRP-conjugated goat anti-mouse IgG antibody diluted at 1:1000 in 0.1% casein in PBS at RT for 1 h. The plates were washed six times with PBS between each incubation step. Finally, 3,3′,5,5′-tetramethylbenzidine (TMB) substrate (Thermo Fisher Scientific, Scoresby, Australia) was added to the wells for the development of colour for 15 min and the reaction was stopped with 1 M sulfuric acid. The OD was measured at 450 nm.
The ability to induce an immune response that can recognise parasite MSP2 is essential in the design of an MSP2-based peptide vaccine. We isolated merozoites from both 3D7 and FC27 (D10 clone) strains of P. falciparum, coated them on ELISA plates and probed them with sera from the immunised mice (Figure 6). mAb 4D11 and the MSP2 mix pre-bleed were also included as positive and negative controls, respectively.

9H4 IgG = assay: SPR competition binding assay, mAb 9H4; design: species or system mouse; conditions: SPR competition assay (Biacore T200); 3D7 MSP2 immobilised on CM5 chip; eight three-fold dilutions of peptide from 10 µM with 50 nM 9H4 IgG; alanine scan of 16-residue MSP2_207–222; read-out: Kd against 9H4 IgG
Experimental: as §1
In our previous work, the minimal epitope and key residues involved in 4D11 binding were defined as the 8-residue peptide 3D7-MSP2_215–222, with Lys216, Glu217 and Asn218 crucial for binding. To characterise the epitope of 9H4 and compare it with that of 4D11, the same alanine-scan peptides were used to probe 9H4 binding (Figure 1A,B). Affinities for 9H4 binding were measured by SPR, using a competition binding assay described previously.

4D11 IgG [3] = assay: ELISA binding of 4D11 IgG against BSA-peptide conjugates; design: species or system mouse; conditions: peptide maleimide-conjugated to BSA coated on plate
Experimental: as §2, with “To determine peptide-KLH binding to 4D11 and 9H4, Maxisorp 96-well microtitre plates (Nunc, Rochester, NY, USA) were coated overnight at 4 °C with 2 µg/mL peptide-KLH in PBS.” left out, “Maxisorp 96-well microtitre plates (Nunc) were coated overnight at 4 °C with 1 µg/mL streptavidin in PBS. The plates were blocked with 1% BSA in PBS for 2 h before adding 1:500 biotinylated peptides. Individual sera samples were diluted 1:1000 in blocking solution before addition to the peptide array.” left out
Anti-peptide antibody titres in the sera of immunised mice were determined using ELISA plates coated with the corresponding peptide-bovine serum albumin (BSA) conjugates. […]

[4] = SPR competition binding assay, peptides for KLH conjugation (Table 2), 3D7 MSP2 on CM5 chip, 50 nM 4D11 IgG

Compound: C[C@@H]1NC(=O)CNC(=O)[C@@H]2CSSC[C@H](NC(=O)[C@H](CC(N)=O)NC(=O)[C@H](CCC(=O)O)NC(=O)[C@H](CCCCN)NC(=O)[C@H](CC(N)=O)NC(=O)CNC(=O)[C@H](C)NC1=O)C(=O)NCC(=O)N[C@@H](C)C(=O)N[C@@H](C)C(=O)N[C@@H](CS)C(=O)N[C@@H](CC(N)=O)C(=O)N[C@@H](CCCCN)C(=O)N[C@@H](CCC(=O)O)C(=O)N[C@@H](CC(N)=O)C(=O)N2 [Peptide C1] (cyclo(NKENCGAAGNKENCGAAC); disulfide 5-14)
- Kd (4D11 IgG [1]; [4]): 440 nM
- specificity of the induced antibodies (peptide array A-I) [2]: almost exclusively directed to the 4D11 epitope
- reactivity of pooled sera with 3D7 merozoites (3D7 merozoites): followed by K209A, A1, C1 and L1

Compound: CC(=O)N[C@@H](CC(N)=O)C(=O)N[C@@H](CCCCN)C(=O)N[C@@H](CCC(=O)O)C(=O)N[C@@H](CC(N)=O)C(=O)N[C@H]1CSSC[C@@H](C(=O)NCC(=O)N[C@@H](C)C(=O)N[C@@H](C)C(=O)N[C@@H](CS)C(N)=O)NC(=O)[C@H](CC(N)=O)NC(=O)[C@H](CCC(=O)O)NC(=O)[C@H](CCCCN)NC(=O)[C@H](CC(N)=O)NC(=O)CNC(=O)[C@H](C)NC(=O)[C@H](C)NC(=O)CNC1=O [Peptide L1] (Ac-NKENCGAAGNKENCGAAC-NH2; disulfide 5-14)
- Kd (4D11 IgG [1]; [4]): 470 nM
- specificity of the induced antibodies (peptide array A-I) [2]: almost exclusively directed to the 4D11 epitope
- reactivity of pooled sera with 3D7 merozoites (3D7 merozoites): followed by K209A, A1, C1 and L1

Compound: CC(=O)N[C@@H](CO)C(=O)N[C@@H](CCC(N)=O)C(=O)N[C@@H](C)C(=O)N[C@@H](CCC(=O)O)C(=O)N[C@H]1CSSC[C@@H](C(=O)NCC(=O)N[C@@H](C)C(=O)N[C@@H](C)C(N)=O)NC(=O)[C@H](CC(N)=O)NC(=O)[C@H](CCC(=O)O)NC(=O)[C@H](CCCCN)NC(=O)[C@H](CC(N)=O)NC(=O)CNC(=O)[C@H](CC(=O)O)NC(=O)[C@H]([C@@H](C)O)NC1=O [Peptide K209A] (Ac-SQAECTDGNKENCGAA-NH2; disulfide 5-13)
- Kd (4D11 IgG [1]; SPR competition assay (Biacore T200), 3D7 MSP2 immobilised on CM5 chip, eight three-fold dilutions of peptide from 10 µM with 50 nM 4D11 IgG, alanine scan of 16-residue MSP2_207–222): 300 nM
- Kd (4D11 IgG [1]; [4]): 200 nM
- specificity of the induced antibodies (peptide array A-I) [2]: shifted antibody recognition towards the 4D11-specific epitope represented by peptides E and F
- reactivity of pooled sera with 3D7 merozoites (3D7 merozoites): followed by K209A, A1, C1 and L1
- Kd (9H4 IgG): 7300 nM

Compound: CC(=O)N[C@@H](CO)C(=O)N[C@@H](CCC(N)=O)C(=O)N[C@@H](CCCCN)C(=O)N[C@@H](CCC(=O)O)C(=O)N[C@H]1CSSC[C@@H](C(=O)NCC(=O)N[C@@H](C)C(=O)N[C@@H](C)C(=O)N[C@@H](CS)C(N)=O)NC(=O)[C@H](CC(N)=O)NC(=O)[C@H](CCC(=O)O)NC(=O)[C@H](CCCCN)NC(=O)[C@H](CC(N)=O)NC(=O)CNC(=O)[C@H](CC(=O)O)NC(=O)[C@H]([C@@H](C)O)NC1=O [Peptide A1] (Ac-SQKECTDGNKENCGAAC-NH2; disulfide 5-13)
- Kd (4D11 IgG [1]; [4]): 200 nM
- specificity of the induced antibodies (peptide array A-I) [2]: primarily against peptides C and D
- reactivity of pooled sera with 3D7 merozoites (3D7 merozoites): followed by K209A, A1, C1 and L1

Compound: SKWICANRSVCPI [non-relevant peptide maleimide-conjugated to BSA, linker control]
- 4D11 IgG binding to BSA-peptide conjugate (4D11 IgG [3]): no 4D11 IgG binding
